Laboratory results from patent US9161562B2, “Natural sweetener” (Horizon Science Pty Ltd, priority 2004, dated 2015).
Like-named read-outs stand apart in the source and are kept apart here.

Assays:
[1] = scale 1 to 100, glucose rated 100, cited from earlier work
healthy people = assay: Glycemic Index (GI) test, two-hour blood glucose response vs glucose reference; assay type: in vivo, humans; conditions: when added to sugar; conclusion of Example 11
Protocol: This study was conducted by the Human Nutrition Unit at the University of Sydney using internationally recognised GI methodology, which has been validated by results obtained from small experimental studies and large multi-centre research trials. The experimental procedures used in this study were in accordance with international standards for conducting ethical research with humans and were approved by the Human Research Ethics Committee of Sydney University.
Using standard methodology to determine a food's GI value, a portion of the food containing between 10 and 50 grams of available carbohydrate is fed to 10 healthy people the morning after they have fasted for 10-12 hours overnight. A fasting blood sample is first obtained from each person and then the food is consumed, after which additional blood samples are obtained at regular intervals during the next two hours. In this way, it's possible to measure the total increase in blood sugar produced by that food over a two-hour period. […]
For each subject, the concentration of glucose in each of the eight whole blood samples collected from them during each test session was analysed in duplicate using a HemoCue® B-glucose photometric analyser employing a glucose dehydrogenase/mutarotase enzymatic assay (HemoCue AB, Ängelholm, Sweden). […] Therefore, each blood sample was analysed immediately after it was collected. […]

**Q.** Which “glycemic index (GI)” value [1] does the source give for `O=C(CO)[C@@H](O)[C@H](O)[C@H](O)CO` [fructose] here?
**A.** The value was 23.

**Q.** With `O=C[C@H](O)[C@@H](O)[C@@H](O)[C@H](O)CO` [galactose] as the compound, how does the “effect on the GI of sugar” value (healthy people) read?
**A.** The value was “reduces the GI to a low level”.

**Q.** Which “glycemic index (GI)” value [1] does the source give for `OC[C@H]1O[C@@](CO)(O[C@H]2O[C@H](CO)[C@@H](O)[C@H](O)[C@H]2O)[C@@H](O)[C@@H]1O` [sucrose] here?
**A.** Its value is “about 65”.

**Q.** What about the “glycemic index (GI)” value ([1]; listed as table sugar) of the same compound?
**A.** Its value is 65.
